Laboratory results published in patent publication US12390446B2 (RESEARCH TRIANGLE INSTITUTE, priority 2017, dated 2025).
Values after ≈ are worked out from the molar mass of the structure shown. Values joined by “and” are separate entries in the source; they are usually repeats but may differ in a detail not shown here. Identical values can stand only once. “Also recorded” adds a separate entry of the source. Like-named read-outs stand apart in the source and are kept apart here.

How the values were obtained:
[1] = target: T1, NPFF2 receptor (human NPFFR2 in CHO-RD-HGA16 cells) (Homo sapiens, UniProt Q9Y5X5); assay: Calcium mobilization functional Ke assay, NPFF2; assay type: cell-based
T1 construct: expressed in transfected cells

Sprague-Dawley rats = assay: Fentanyl-induced hyperalgesia model in rats (von Frey paw withdrawal threshold); assay type: in vivo, rat; conditions: day 1 after fentanyl, i.p., cumulative doses 3.2-32 mg/kg
Kinetic solubility assay = assay type: physicochemical
Procedure: (§1) Kinetic solubility and bidirectional MDCK-MDR1 permeability assays of the compounds were performed by Paraza Pharma Inc. (Montreal, Canada) according to their standard protocols.
Kinetic solubility assay. A 10 μL of test compound stock solution (10 mM DMSO) was combined with 490 μL of PBS (potassium phosphate monobasic 1 mM, sodium phosphate dibasic 3 mM and sodium chloride 155 mM buffer). The solution was agitated on a VX-2500 multi-tube vortexer (VWR) for 2 hours at room temperature. Following agitation, the sample was filtrated on a glass-fiber filter (1 μm) and the eluate was diluted 200-fold with a mixture of acetonitrile: water (1:1). On each experimental occasion, nicardipine and imipramine were assessed as reference compounds for low and high solubility, respectively. All samples were assessed in triplicate and analyzed by LC-MS/MS using electrospray ionization against standards prepared in the same matrix.

[2] = target: NPFF2 receptor (human NPFFR2-CHO cells) (Homo sapiens, UniProt Q9Y5X5); assay: Lance cAMP functional Ke assay, NPFF2; assay type: cell-based; conditions: for Kb: Table 5
Procedure: as §1
(§2) cAMP assay. Stable human NPFFR1-CHO (ES-491-C) and NPFFR2-CHO (ES-490-C) cell lines were purchased from PerkinElmer and used with the Lance@ Ultra kit (TRF0262) to detect cAMP accumulation in low volume 96-well plates. Stimulation buffer containing 1× HBSS, 5 mM HEPES, 0.1% BSA stabilizer, and 0.5 mM IBMX was prepared and titrated to 7.4 at room temperature.
(§3) A single concentration of each test compound was prepared at 4× the desired final concentration in 2% DMSO/stimulation buffer and 5 μL was added to the assay plate.
(§4) Cells were lifted with versene and spun at 270 g for 10 minutes. The cell pellet was resuspended in stimulation buffer and 4,000 cells (10 μL) were added to each well. After incubating for 30 min at RT, Eu-cAMP tracer and uLIGHT-anti-cAMP working solutions were added per the manufacturer's instructions. After incubation at RT for 1 hour, the TR-FRET signal (ex 337 nm) was read on a CLARIOstar multimode plate reader (BMG Biotech, Cary NC).
(§5) Fluorescence values at 665 nm were plotted against the log of compound concentration using a nonlinear regression analysis to generate EC50 values (GraphPad Prism, GraphPad Software, Inc., San Diego CA). Ke values were calculated using the same equation as described in the calcium mobilization methods.

[3] = target: NPFF1 receptor (human NPFFR1-CHO cells) (Homo sapiens, UniProt Q9GZQ6); assay: Lance cAMP functional Ke assay, NPFF1; assay type: cell-based; conditions: for Kb: Table 5
Procedure: as §1, §2, §3, §4, §5

[4] = target: T2, NPFF1 receptor (CHO-hNPFFR1 membranes) (Homo sapiens, UniProt Q9GZQ6); assay: Radioligand binding assay, [125I]NPFF, NPFF1
T2 construct: purchased PerkinElmer RBHNF1M400UA; host or cells: CHO cell membranes
Procedure: (§6) Radioligand binding assay. Binding assays were performed according to PerkinElmer's protocol in a final volume of 500 μL of assay buffer (50 mM Tris-HCl, 1 mM MgCl2, 60 mM NaCl, 0.5% BSA, pH 7.4). […] After incubating at 27° C. for 120 minutes, the binding assay was terminated by vacuum filtration onto Unifilter GF/C glass-fiber filters (pre-soaked in 0.1% PEI) using a Brandel (Gaithersburg, MD, USA) 96-well harvester, followed by three washes with ice-cold wash buffer (50 mM Tris-HCl, 0.1% BSA, pH 7.4). The filter plate was dried for 1 hr at 55° C. Microscint 20 (50 μL) was added to each well and filter-bound radioactivity was counted on a Packard TopCount NXT microplate scintillation and luminescence counter.
(§7) Data were fit to a one site (fit Ki) competitive binding model, log EC50=log(10^log Ki*(1+RadioligandNM/HotKdNM)), to generate Ki values for the test compounds using GraphPad Prism (GraphPad Software, Inc., San Diego CA).

MDCK-MDR1 cells = assay: Bidirectional MDCK-MDR1 permeability assay; assay type: in vitro ADME; conditions: for BBB permeability / rate B to A / rate apical (A) to basolateral (B): MDCK-MDR1; for Pgp substrate: from efflux ratio
Procedure: as §1
(§8) Bidirectional MDCK-MDR1 permeability assay. MDCK-mdr1 cells at passage 5 were seeded onto permeable polycarbonate supports in 12-well Costar@ Transwell® plates and allowed to grow and differentiate for 3 days. On day 3, culture medium (DMEM supplemented with 10% FBS) was removed from both sides of the transwell inserts and cells were rinsed with warm HBSS. After the rinse step, the chambers were filled with warm transport buffer (HBSS containing 10 mM HEPES, 0.25% BSA, pH 7.4) and the plates were incubated at 37° C. for 30 min prior to TEER (Trans Epithelial Electric Resistance) measurements.
(§9) The buffer in the donor chamber (apical side for A-to-B assay, basolateral side for B-to-A assay) was removed and replaced with the working solution (10 μM test article in transport buffer). The plates were then placed at 37° C. under light agitation. At designated time points (30, 60 and 90 min), an aliquot of transport buffer from the receiver chamber was removed and replenished with fresh transport buffer. Samples were quenched with ice-cold ACN containing internal standard and then centrifuged to pellet protein. Resulting supernatants are further diluted with 50/50 ACN/H2O(H2O only for Atenolol) and submitted for LC-MS/MS analysis. Reported apparent permeability (Papp) values were calculated from single determination. Atenolol and propranolol were tested as low and […] permeability references.
(§10) The apparent permeability (Papp, measured in cm/s) of a compound is determined according to the following formula:
(§11) [formula] • dQ/dt is the net rate of appearance in the receiver compartment • A is the area of the Transwell measured in cm^2 (1.12 cm^2) • Ci is the initial concentration of compound added to the donor chamber • 60 is the conversion factor for minutes to seconds. In Vivo Pharmacology.

P-gp (MDR1) = assay: Bidirectional MDCK-MDR1 permeability assay; assay type: in vitro ADME; conditions: dog, MDCK-MDR1, pH 7.4; read-out: efflux ratio (PB→A/PA→B)
Procedure: as §1, §8, §9, §10, §11

[5] = target: T3, NPFF1 receptor (human NPFFR1 in CHO-RD-HGA16 cells) (Homo sapiens, UniProt Q9GZQ6); assay: Calcium mobilization functional Ke assay, NPFF1; assay type: cell-based; conditions: for preference / selectivity for NPFF1 over NPFF2: from calcium mobilization Ke values
T3 construct: expressed in transfected cells

[6] = target: T4, NPFF2 receptor (CHO-hNPFFR2 membranes) (Homo sapiens, UniProt Q9Y5X5); assay: Radioligand binding assay, [125I]NPFF, NPFF2
T4 construct: purchased PerkinElmer RBHNF2M400UA; host or cells: CHO cell membranes
Procedure: as §6, §7

[7] = calcium mobilization assay, read-out: NPFF1 Ke
[8] = Table 5, [125I]NPFF displacement
[9] = Table 1, mean ± SEM, apparent dissociation constant vs NPFF, read-out: NPFF1 Ke
[10] = Table 6, MDCK-MDR1, 10 μM test article

T2 sequence (Q9GZQ6 whole entry): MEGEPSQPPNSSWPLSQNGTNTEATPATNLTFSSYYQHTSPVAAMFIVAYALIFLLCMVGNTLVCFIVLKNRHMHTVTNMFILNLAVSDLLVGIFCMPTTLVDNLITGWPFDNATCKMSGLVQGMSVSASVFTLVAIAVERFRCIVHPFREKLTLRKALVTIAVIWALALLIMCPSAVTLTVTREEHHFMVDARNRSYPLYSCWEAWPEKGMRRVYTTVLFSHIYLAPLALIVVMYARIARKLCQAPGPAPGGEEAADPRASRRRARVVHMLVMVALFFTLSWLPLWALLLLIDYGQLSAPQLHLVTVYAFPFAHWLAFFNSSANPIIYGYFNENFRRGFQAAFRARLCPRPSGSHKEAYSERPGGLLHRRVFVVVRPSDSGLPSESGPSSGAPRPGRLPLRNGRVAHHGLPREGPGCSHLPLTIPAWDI
T3 sequence (Q9GZQ6 whole entry): as above
Chain of NPFF1 receptor (human NPFFR1-CHO cells) (Q9GZQ6 whole entry): as above
T1 sequence (Q9Y5X5 whole entry): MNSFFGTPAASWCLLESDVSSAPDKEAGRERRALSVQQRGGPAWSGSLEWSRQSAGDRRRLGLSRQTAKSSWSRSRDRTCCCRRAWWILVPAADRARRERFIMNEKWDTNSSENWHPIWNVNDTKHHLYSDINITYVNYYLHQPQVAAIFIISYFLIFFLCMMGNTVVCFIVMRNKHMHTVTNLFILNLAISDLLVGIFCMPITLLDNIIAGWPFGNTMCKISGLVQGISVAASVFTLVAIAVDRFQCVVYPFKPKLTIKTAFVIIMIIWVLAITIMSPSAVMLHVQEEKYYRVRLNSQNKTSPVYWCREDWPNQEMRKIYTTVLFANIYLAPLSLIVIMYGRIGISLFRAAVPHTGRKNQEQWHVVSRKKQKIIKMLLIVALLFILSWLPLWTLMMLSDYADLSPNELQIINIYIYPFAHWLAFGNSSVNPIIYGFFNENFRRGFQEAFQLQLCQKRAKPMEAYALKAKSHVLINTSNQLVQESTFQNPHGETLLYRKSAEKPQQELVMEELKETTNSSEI
T4 sequence (Q9Y5X5 whole entry): as above
Chain of NPFF2 receptor (human NPFFR2-CHO cells) (Q9Y5X5 whole entry): as above

Kb [2]	SMILES	Hill slope of NPFF + compound curve, calcium mobilization, NPFF2 cells [1]	effect on PWT (Sprague-Dawley rats)	solubility (Kinetic solubility assay)	Hill slope of NPFF + compound curve, cAMP assay, NPFF2 cells [2]	Hill slope of NPFF + compound curve, cAMP assay, NPFF1 cells [3]	BBB permeability (MDCK-MDR1 cells)	rate B to A (MDCK-MDR1 cells)	rate apical (A) to basolateral (B) (MDCK-MDR1 cells)	Pgp substrate (MDCK-MDR1 cells)	Hill slope of NPFF + compound curve, calcium mobilization, NPFF1 cells [5]	Kb [5, 7]	preference / selectivity for NPFF1 over NPFF2 [5]	Ki [4, 8]	Kb [5, 9]	Ki [6, 8]	Kb [3]	further results
	COc1ccc(CN[C@H]2C[C@@H](C(=O)NCCc3ccc([N+](=O)[O-])cc3)N(Cc3ccccc3Cl)C2)cc1 [Compound 33]	1.4	dose-dependently increased PWT	moderate	1	1.4	moderate	3.6e-06 cm/s	2.7e-06 cm/s	not Pgp substrates; also recorded: not a Pgp substrate	1.4	245 nM and 250 nM	~3 fold					Ki [4]: 610 ± 30 nM; efflux ratio at 90 min, 10 μM (P-gp (MDR1)): 1.3; type of antagonism in curve-shift assays ([5]; standard incubation, competitive profile with longer incubations): insurmountable antagonism; Ki [6]: 1670 nM
2560 nM	COc1ccc(CCNC(=O)[C@@H]2C[C@H](NCc3ccc(OC)cc3)CN2Cc2ccccc2Cl)cc1 [Compound 26, (2S,4S)-1-[(2-Chlorophenyl)methyl]-N-[2-(4-methoxyphenyl)ethyl]-4-{[(4-methoxyphenyl)methyl]amino}pyrrolidine-2-carboxamide]											670 nM		920 ± 30 nM	670 ± 60 nM	1460 nM		Kb ([1]; Table 1, footnote c: pre-incubation of antagonist and test compound 45 min or 1 hr, read-out: NPFF2 Ke): 1750 nM; Kb ([3]; footnote c: pre-incubation of antagonist and receptor 1 hour): 570 ± 150 nM
2160 nM	COc1ccc(CN[C@H]2C[C@@H](C(=O)NCCc3ccc(F)c(F)c3)N(Cc3ccccc3Cl)C2)cc1 [Compound 34, (2S,4S)-1-[(2-Chlorophenyl)methyl]-N-[2-(3,4-difluorophenyl)ethyl]-4-{[(4-methoxyphenyl)methyl]amino}pyrrolidine-2-carboxamide]											610 nM		560 ± 40 nM	610 ± 130 nM	1490 nM	570 ± 170 nM	
1760 nM	O=C(NCCc1ccc([N+](=O)[O-])cc1)[C@@H]1C[C@H](NCc2ccc(Cl)cc2)CN1Cc1ccccc1Cl [Compound 63, (2S,4S)-1-[(2-Chlorophenyl)methyl]-4-{[(4-chlorophenyl)methyl]amino}-N-[2-(4-nitrophenyl)ethyl]pyrrolidine-2-carboxamide]																1550 nM	Kb ([1]; Table 3, mean ± SEM, read-out: NPFF2 Ke): 1860 nM; Kb ([5]; Table 3, mean ± SEM, read-out: NPFF1 Ke): 680 ± 180 nM; Kb ([5]; Table 5, read-out: Calcium mobilization assay Ke NPFF1): 510 ± 180 nM

SMILES	Kb [2]	Hill slope of NPFF + compound curve, calcium mobilization, NPFF2 cells [1]	effect on PWT (Sprague-Dawley rats)	solubility (Kinetic solubility assay)	Hill slope of NPFF + compound curve, cAMP assay, NPFF2 cells [2]	Hill slope of NPFF + compound curve, cAMP assay, NPFF1 cells [3]	BBB permeability (MDCK-MDR1 cells)	rate B to A (MDCK-MDR1 cells)	rate apical (A) to basolateral (B) (MDCK-MDR1 cells)	Pgp substrate (MDCK-MDR1 cells)	Hill slope of NPFF + compound curve, calcium mobilization, NPFF1 cells [5]	Kb [5, 7]	preference / selectivity for NPFF1 over NPFF2 [5]	Ki [4, 8]	Kb [5, 9]	Ki [6, 8]	Kb [3]	further results
CCCCCNC(=O)[C@@H]1C[C@H](NCc2ccc(OC)cc2)CN1Cc1ccccc1Cl [Compound 16, (2S,4S)-1-[(2-Chlorophenyl)methyl]-4-{[(4-methoxyphenyl)methyl]amino}-N-pentylpyrrolidine-2-carboxamide]	2150 nM	1.1	dose-dependently increased PWT	good and moderate	1.3	1.3	moderate	6.7e-06 cm/s	7.6e-06 cm/s	not Pgp substrates	1.7	720 nM	> 4 fold	890 ± 50 nM	720 ± 10 nM	1440 nM	340 ± 80 nM	Kb ([1]; Table 1, mean ± SEM, apparent dissociation constant vs NPFF, read-out: NPFF2 Ke): 3090 nM; NPFF2 Ke ([1]; calcium mobilization assay): 3,090 nM; kinetic solubility (Kinetic solubility assay; Mean±% CV, free base): 146.8 ± 6.9 µM (≈ 65.2 µg/mL); solubility (Kinetic solubility assay; Table 6, kinetic solubility in PBS, free base, Mean ± % CV): 146.8 ± 6.9 µM (≈ 65.2 µg/mL); Papp A-to-B (MDCK-MDR1 cells; [10]): 7.6 10^−6 cm/sec; Papp B-to-A (MDCK-MDR1 cells; [10]): 6.7 10^−6 cm/sec; Efflux ratio (MDCK-MDR1 cells; Table 6, PB→A/PA→B): 0.9
COc1ccc(CN[C@H]2C[C@@H](C(=O)NCCc3ccccc3)N(Cc3ccccc3Cl)C2)cc1 [Compound 24, (2S,4S)-1-[(2-Chlorophenyl)methyl]-4-{[(4-methoxyphenyl)methyl]amino}-N-(2-phenylethyl)pyrrolidine-2-carboxamide]	3790 nM											850 nM		710 ± 20 nM	850 ± 140 nM	1230 nM	770 ± 120 nM	Kb ([1]; read-out: Calcium mobilization assay Ke NPFF2): > 10000 nM; Kb ([1]; read-out: NPFF2 Ke): > 10000 nM and 9390 nM; NPFF1 Ke ([5]; Table 4, mean ± SEM): 850 ± 140 nM; Calcium mobilization assay Ke NPFF1 ([5]; Table 5): 850 ± 140 nM
